Reference: US20020098520A1, “Cell tests and diagnostic index for alzheimer's disease” (priority 1993, published 2002)
“Also recorded” adds a separate entry of the source.

Tests used:
[1] = tested on: Cp20; experiment: Cp20 immunoblot of AC fibroblasts treated with β-amyloid; type: cell-based, human; conditions: 10 nM β-amyloid for 48 h, 9 AC cell lines
Description: (§1) Cell lines and procedures for cell culture. Human skin fibroblasts were grown to confluence in 75 cc growing surface culture flasks (Falcon) containing Dulbecco's modified Eagle's medium (DMEM, Gibco), supplemented with 10% fetal calf serum (Gibco). […]
Protein assay, immunoblotting, and total protein analyses procedures. Protein concentration was determined following an established dye-binding protein assay (R. D. Lane et al. J. Immunol Methods 92:261 (1986) for all homogenates. For immunoblots, a SDS-PAGE 4-20% gradient, […] gel was used (Novex, San Diego, Calif.). Sample volume was adjusted to give a protein concentration of 1 μg/μl. Novex sample buffer (16 μl) was added to 16 μl of sample, the solution was heated to 85° C. for 2 min, loaded into the gel and subjected to […] for ≈1.5 h. The Rainbow™ molecular weight standard (Amersham) was also loaded. The resolved proteins were electrophoretically transferred (51.2 mA for 2 h) to a unmodified 8 by 8 cm nitrocellulose paper (Pierce). […]

[2] = tested on: proteins in the 20 kD region; experiment: Total protein analysis (SDS-PAGE, Coomassie blue) of β-amyloid treated AC fibroblasts; type: cell-based, human; conditions: 10 nM β-amyloid for 48 h, AC cell lines
Description: as §1
Protein assay, immunoblotting, and total protein analyses procedures. Protein concentration was determined following an established dye-binding protein assay (R. D. Lane et al. J. Immunol Methods 92:261 (1986) for all homogenates. For immunoblots, a SDS-PAGE 4-20% gradient, […] gel was used (Novex, San Diego, Calif.). Sample volume was adjusted to give a protein concentration of 1 μg/μl. Novex sample buffer (16 μl) was added to 16 μl of sample, the solution was heated to 85° C. for 2 min, loaded into the gel and subjected to […] for ≈1.5 h. The Rainbow™ molecular weight standard (Amersham) was also loaded. The resolved proteins were electrophoretically transferred (51.2 mA for 2 h) to a unmodified 8 by 8 cm nitrocellulose paper (Pierce). […] Immunoblots were then digitized on a flat bed scanner and analyzed with imaging software written in the laboratory (TN Image by T. J. Nelson) for quantitative analysis. […] MW was determined by comparison with Mark12™ standards (Novex). […]

[3] = tested on: 113 pS K+ channel; conditions: low β-amyloid concentration (10 nM), cited from earlier work

Q: For β-amyloid 1-40 peptide, which “Cp20 level in treated cells compared to non-treated counterparts” value [1] is on record?
A: Its value is “significantly reduced; also recorded: reduction of Cp20; also recorded: induced the Alzheimer's disease phenotypes for Cp20”.

Q: And the “effect on total protein profile / proteins in the 20 kD region” value [2]?
A: The value was “not a generalized effect on all proteins in the 20 kD region; also recorded: revealed no differences”.

Q: What about the “effect on the 113 pS K+ channel / K+ function” value ([3]; control cells) of the same substance?
A: Its value is “specific AD-like effects; also recorded: induces an AD-like K+ dysfunction”.

Q: What about the “effect on basal levels of intracellular Ca^2+” value [3] of the same substance?
A: The value was “without altering basal levels”.
